Measurements taken from PMC3276683 (Bioorganic & medicinal chemistry, 2012).
pIC50: −log10 of the molar value. Like-named read-outs stand apart in the source and are kept apart here.

Assays:
[1] = test system: Plasmodium falciparum (strain K1, IEF stage); type: cell-based; details: L6 IC50 versus P. falciparum IC50
[2] = test system: American Trypanosoma cruzi blood trypomastigotes; details: in words; cited from earlier work
[3] = test system: Leishmania donovani; details: cited from earlier work
[4] = test system: Trypanosoma brucei rhodesiense (strain STIB 900, trypomastigote stage); test: Growth inhibition of T. b. rhodesiense STIB900 trypomastigote forms; type: cell-based

For COC1=CC(=O)O[C@]2(/C=C/c3ccc(C(C)(C)C)cc3)[C@H]1[C@H](c1ccc(C(C)(C)C)cc1)[C@H]2c1cc(OC)cc(=O)o1 (racemic) [compound 33, 12,12′-Di-tert-butyl-aniba-dimer-A], the “SI Pf. (selectivity index for Plasmodium falciparum against L6)” value [1] was roughly 80.
In the case of COc1cc(/C=C/c2ccc(OC)c(OC)c2)oc(=O)c1 [compound 3, 6-[2-(3,4-Dimethoxyphenyl)ethenyl]-4-methoxy-2H-pyran-2-one], the “activity against T. cruzi blood trypomastigotes” value [2] is given as “weak activity”.
In the case of CCCCCCc1c(OC)cc(CCCCC)oc1=O [compound 10], the IC50 [3] is given as “similarly active”.
In the case of Nc1nc(N)nc(Nc2ccc([As]3SCC(CO)S3)cc2)n1 (centres unmarked) [melarsoprol], the IC50 ([4]; RHODESIENSE|STIB900) was 4 ng/mL and the pIC50 ([4]; RHODESIENSE|STIB900, read-out: T.b.rhod. IC50) was 8.00.
